The values that follow come from ChEMBL document CHEMBL5126530, “Building on endogenous lipid mediators to design synthetic receptor ligands” (Eur J Med Chem, 2022).

Common to all, as to type: functional, cell-based
In one assay the target is Prostacyclin receptor (Homo sapiens, UniProt P43119). Kind of assay: Agonist activity at human IP expressed in HEK293 cells assessed as increase in cAMP level incubated for 20 mins measured after 60 mins addition of cAMP detect reagent by HTRF analysis.
The target of assay [1] is T1, Prostaglandin E2 receptor EP1 subtype (Homo sapiens, UniProt P34995).
T1 sequence (P34995 whole entry): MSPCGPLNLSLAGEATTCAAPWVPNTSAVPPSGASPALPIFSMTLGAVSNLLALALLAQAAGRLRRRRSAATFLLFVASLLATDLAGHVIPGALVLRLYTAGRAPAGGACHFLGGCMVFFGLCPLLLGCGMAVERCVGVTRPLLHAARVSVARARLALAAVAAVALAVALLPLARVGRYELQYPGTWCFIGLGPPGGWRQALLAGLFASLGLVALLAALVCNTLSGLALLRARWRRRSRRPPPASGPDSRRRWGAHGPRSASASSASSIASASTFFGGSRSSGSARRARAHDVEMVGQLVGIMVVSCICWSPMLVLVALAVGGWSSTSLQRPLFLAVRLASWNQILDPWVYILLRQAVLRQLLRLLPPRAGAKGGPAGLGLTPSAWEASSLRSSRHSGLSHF
Kind of assay: Agonist activity at human EP1 expressed in HEK293 cells assessed as increase in cAMP level incubated for 20 mins measured after 60 mins addition of cAMP detect reagent by HTRF analysis.

Assay [2] has as its target T2, Prostaglandin D2 receptor (Homo sapiens, UniProt Q13258).
T2 sequence (Q13258 whole entry): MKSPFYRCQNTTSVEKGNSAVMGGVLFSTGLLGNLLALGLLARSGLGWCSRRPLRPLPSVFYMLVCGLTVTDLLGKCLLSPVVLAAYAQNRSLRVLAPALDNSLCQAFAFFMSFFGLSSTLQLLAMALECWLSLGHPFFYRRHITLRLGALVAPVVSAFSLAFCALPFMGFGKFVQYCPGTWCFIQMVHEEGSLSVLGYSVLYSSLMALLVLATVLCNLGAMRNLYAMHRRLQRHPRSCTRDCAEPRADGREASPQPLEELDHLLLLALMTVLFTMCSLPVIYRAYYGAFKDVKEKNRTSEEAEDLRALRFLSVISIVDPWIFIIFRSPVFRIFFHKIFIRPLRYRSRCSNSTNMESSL
In words: Agonist activity at human DP1 expressed in human 1321N1 cells assessed as increase in cAMP level incubated for 20 mins measured after 60 mins addition of cAMP detect reagent by HTRF analysis.

For assay [3], the target named is Prostaglandin E2 receptor EP2 subtype (Homo sapiens, UniProt P43116). Kind of assay: Agonist activity at human EP2 expressed in HEK293 cells assessed as increase in cAMP level incubated for 20 mins measured after 60 mins addition of cAMP detect reagent by HTRF analysis.
Prostaglandin E2 receptor EP2 subtype, sequence (P43116 whole entry): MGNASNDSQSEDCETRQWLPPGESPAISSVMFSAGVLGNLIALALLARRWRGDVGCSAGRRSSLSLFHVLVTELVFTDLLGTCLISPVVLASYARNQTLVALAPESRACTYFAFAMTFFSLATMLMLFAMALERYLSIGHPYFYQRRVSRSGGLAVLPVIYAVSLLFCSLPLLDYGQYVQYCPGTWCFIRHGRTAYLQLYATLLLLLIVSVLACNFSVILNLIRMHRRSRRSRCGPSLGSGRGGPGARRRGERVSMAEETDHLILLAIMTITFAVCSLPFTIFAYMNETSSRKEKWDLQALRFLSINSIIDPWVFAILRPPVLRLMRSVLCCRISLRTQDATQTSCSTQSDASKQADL

Prostacyclin receptor, sequence (P43119 whole entry): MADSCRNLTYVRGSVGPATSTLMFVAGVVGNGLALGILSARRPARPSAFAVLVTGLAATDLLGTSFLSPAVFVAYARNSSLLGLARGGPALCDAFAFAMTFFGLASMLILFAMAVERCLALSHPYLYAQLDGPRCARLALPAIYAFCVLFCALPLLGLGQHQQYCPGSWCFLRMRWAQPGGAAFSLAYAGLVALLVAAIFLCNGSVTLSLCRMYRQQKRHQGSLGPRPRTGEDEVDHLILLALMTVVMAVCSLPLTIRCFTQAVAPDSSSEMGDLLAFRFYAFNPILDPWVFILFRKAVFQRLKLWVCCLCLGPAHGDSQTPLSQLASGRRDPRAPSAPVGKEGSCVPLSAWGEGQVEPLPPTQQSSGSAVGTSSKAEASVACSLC

With `CCCCC[C@H](O)CC[C@@H]1[C@H]2Cc3cccc(OCC(=O)O)c3C[C@H]2C[C@H]1O` [TREPROSTINIL], the EC50 came to 1.9 nM at Prostacyclin receptor, 285 nM in assay [1], 0.6 nM in assay [2] and 6.2 nM in assay [3].
Turning to `CC#CCC(C)[C@H](O)/C=C/[C@@H]1[C@H]2C/C(=C/CCCC(=O)O)C[C@H]2C[C@H]1O` (some centres not stated) [ILOPROST], the EC50 in assay [1] came out at 0.3 nM; in assay [2], 2060 nM; in assay [3], 2090 nM.
